Laboratory results: PMC9644403, “L-type Amino Acid Transporter 1 Utilizing Ferulic Acid Derivatives Show Increased Drug Delivery in the Mouse Pancreas Along with Decreased Lipid Peroxidation and Prostaglandin Production” (Molecular Pharmaceutics, 2022)

Experiments:
[1] = tested on: malondialdehyde (MDA) formation; test: Inhibition of lipid peroxidation: MDA formation in tissues of LPS-induced mice; type: in vivo, mouse; conditions: LPS 250 μg/kg i.p. 3 days, mean ± SD; for MDA formation in pancreas, preventative treatment: compound 25 μmol/kg i.p. for 3 days and 120 min before sacrifice; for MDA formation in pancreas, curative treatment: compound 25 μmol/kg i.p. only for the last 2 days
Description: (§1) According to the results from previous in vitro([18]) efficacy and safety studies and in vivo pharmacokinetics, the efficacy of the FA and the more LAT1-specific derivative, D1 against oxidative stress and lipid peroxidation was evaluated by determining malondialdehyde (MDA) formation in mouse tissues. To induce oxidative stress, mice were administered 250 μg/kg of lipopolysaccharide (LPS) i.p. once per day for 3 consecutive days. On the 4th day, mice were anesthetized using a mixture of ketamine (140 mg/kg) and xylazine (8 mg/kg) and sacrificed by decapitation. Animals were divided into one of four treatment groups (n = 4 per group); (1) LPS only, (2) LPS with the FA or D1 (25 μmol/kg; i.p.) for 3 days and 120 min before the sacrifice on the 4th day (preventative efficacy), (3) LPS with the FA or D1 (25 μmol/kg; i.p.) only for the last 2 days (curative efficacy), or (4) control mice treated with 0.9% NaCl solution i.p. once per day for 3 days. After decapitation, the kidney, liver, and pancreas were rapidly collected, snap-frozen on dry ice, and stored at −80 °C until analyzed.
Pieces of snap-frozen tissues were homogenized 1:10 (w/v) in 50 mM TBS (pH 7.4) containing 0.01% butylated hydroxytoluene by sonicating samples in pulses for 5 s with a SoniPrep 150 Plus disintegrator (MSE Ltd., London, UK). The homogenates were then centrifuged at 10 000 × g for 20 min at 4 °C, and the supernatants were collected for the assays.
MDA was quantified by the derivatization reaction with thiobarbituric acid (TBA) (Sigma, St. Louis, MO, USA), with a previously described protocol.[30] The analysis was carried out with an Agilent 1290 Infinity II LC System (Agilent Technologies, Santa Clara, CA, USA) combined with an Agilent 1290 Infinity II Diode Array Detector. The results were calculated as μmol of formed MDA-TBA2 per mg of tissue.

[2] = tested on: prostaglandin E2 (PGE2) production; test: Inhibition of prostaglandin E2 production in tissues of LPS-induced mice; type: in vivo, mouse; conditions: LPS 250 μg/kg i.p., mean ± SD; for PGE2 in liver, preventative treatment / PGE2 in pancreas, preventative treatment: compound 25 μmol/kg i.p. 3 days and 120 min before sacrifice; for PGE2 in liver, curative treatment / PGE2 in pancreas, curative treatment: compound 25 μmol/kg i.p. last 2 days
Description: as §1
The ability of FA and D1 to inhibit prostaglandin E2 (PGE2) production in the mouse kidney, liver, and pancreas was evaluated after the exposure of mice to LPS. The tissue homogenate supernatants (n = 4), prepared as described above in MDA sample preparation (Chapter 2.7), were further diluted 1:5 with 80% MeOH (v/v) solution containing the deuterated internal standard, PGE2-d4 (Cayman Chemical Company, Ann Arbor, MI, USA). To improve the extraction of prostaglandins and precipitation of proteins, the diluted samples were incubated overnight in a freezer (−80 °C). Subsequently, samples were centrifuged at 16 000 × g for 20 min at 4 °C and the supernatants were collected for the LC–MS/MS analysis.
The LC–MS/MS analysis was carried out with a previously described method[30] using an Agilent 1290 Infinity LC System (Agilent Technologies, Waldbronn, Germany) and an Agilent 6495 triple quadrupole mass spectrometer with a heated electrospray ionization source (Agilent Technologies, Palo Alto, CA, USA). Data were collected using Agilent MassHunter Workstation software (version B.06.00) and processed with the Quantitative Analysis (B.07.00) software. The results were calculated as nmol of PGE2 per mg of tissue.

[3] = tested on: human erythrocytes; test: Erythrocyte morphology, phase-contrast microscopy; type: cell-based; conditions: tested 25–100 μM
Description: To further evaluate the safety of derivatives in human blood, the effects of FA, D1, and D2 on hemolysis were studied using a previously described protocol.[31] Shortly, freshly collected erythrocytes were washed three times with 1 mL of 0.9% saline (Sigma-Aldrich, Germany). Subsequently, 2% RBC suspension was prepared by diluting 1 mL of erythrocytes in 50 mL of 0.9% saline. FA, D1, and D2 (1–100 μM) were incubated with the RBC suspension at 37 °C for 1 h. Additionally, negative controls containing 0.9% NaCl and positive controls with Triton X-100 (Polish Chemical Reagents, Poland) were studied. After incubation, the samples were centrifuged at 3 000 rpm for 10 min, and the absorbance values were measured from the collected supernatants at the wavelength of 550 nm. Samples with Triton X (positive control) represented 100% hemolysis. Results of the studies are presented as a percentage of released hemoglobin. The counted CV was 8.1% (n = 5). Additionally, the influence of FA and its derivatives (25–100 μM) on RBC morphology was studied using a phase contrast Opta-Tech inverted microscope. The morphology was analyzed using a dedicated OptaView 7 software (Opta-Tech, Warsaw, Poland).

[4] = previous in vitro bioconversion studies; cited from earlier work
[5] = tested on: LAT1; design: method as in PMID 31814871, PMID 35011270; conditions: previous uptake mechanism studies; cited from earlier work
[6] = tested on: human umbilical vein endothelial cells (HUVECs); test: HUVEC viability, WST-1 assay; type: cell-based; conditions: WST-1, 24 h
Description: As a third in vitro toxicity study in the human blood circulation system, the effects of FA, D1, and D2 on the viability of human umbilical vein endothelial cells (HUVECs; RRID CVCL_2959; Lonza, Italy; Cat. no. CC-2517) were determined using the WST-1 assay (Takara, Takara Bio Europe, Europe, Saint-Germain-en-Laye, France), according to the previously published protocol.[32] Briefly, the cells were cultured according to the manufacturer’s guidelines with the following ingredients: EGM-2-medium + bullet kit (Lonza, Clonetics, Italy), accutase (Sigma-Aldrich, Germany), and HEPES-buffered saline solution (Lonza, Basel, Switzerland). For the assay, the cells were seeded at the density of 7 500 HUVECs per well on 96-well plates and cultured for 24 h to obtain 70% confluency. Subsequently, the cells were treated with studied compounds in multiplicate (n = 6–8) at the concentration of 0.1–100 μM in the growth medium for 24 h (37 °C, 5% CO2). Cells with untreated growth medium represented 100% viability, whereas cells treated with medium containing 0.5% (v/v) methanol served as a negative control for drug solvent. After treating cells for 24 h, medium was removed, the cells were washed with the culture medium (100 μl/well), and 100 μL of WST-1 reagent dissolved in culture medium was added into each well. The plates were incubated at 37 °C with 5% CO2 for 2 h, after which absorbance values were measured at the 450 nm wavelength using a microplate reader (iMARK, Bio-Rad). Additionally, the effects of treatments on HUVEC morphology were examined microscopically using a phase-contrast Opta-Tech inverted microscope equipped with OptaView 7 software (Opta-Tech, Warsaw, Poland) for image analysis.

concentration at which anisocytosis with formation of macrocytes was observed [3] [µM]	concentration at which few stomatocytes were detected [3] [µM]	concentration at which formation of echinocytes was observed [3] [µM]	Compound	MDA formation in pancreas, preventative treatment [1] [µmol/mg]	MDA formation in pancreas, curative treatment [1] [µmol/mg]	PGE2 in liver, preventative treatment [2] [nmol/mg]	PGE2 in pancreas, preventative treatment [2] [nmol/mg]	PGE2 in liver, curative treatment [2] [nmol/mg]	PGE2 in pancreas, curative treatment [2] [nmol/mg]	release of FA in the mouse liver [4]	affinity toward LAT1 compared to the secondary transport mechanism [5]	overall uptake speed compared to D1 [5] [times]	effect on HUVEC viability at 1–50 μM [6]
50 to 100	100		COc1cc(C=CC(=O)NCc2cccc(CC(N)C(=O)O)c2)ccc1O (centres unmarked) [derivative 1]	0.46 ± 0.47	0.44 ± 0.39	15.95 ± 9.61	24.51 ± 15.99	48.55 ± 14.50	23.51 ± 8.81	neither D1 nor D2 released FA			
		50 to 100	COc1cc(/C=C/C(=O)Nc2cccc(C[C@H](N)C(=O)O)c2)ccc1O [derivative 2]							neither D1 nor D2 released FA	over 20 times	1.5	
			COc1cc(C=CC(=O)O)ccc1O [ferulic acid, 4-hydroxy-3-methoxycinnamic acid]	0.94 ± 0.41	1.04 ± 0.29	25.41 ± 6.35	57.56 ± 51.63	37.07 ± 10.02	54.68 ± 22.02				no statistically significant effect
